Compound in one assay: NC(=O)CCCCC1CCSS1 [lipoamide]
Put plainly: thermal stability z-score vs DMSO; higher = more thermally stabilized by treatment. To be noted: HeLa, lipoamide concentration 100 µM. How it is done:
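Cellular thermal proteome profiling in HeLa cells. Cells were treated with 100 µM lipoamide for 1 h, with or without 1 mM arsenate for a further 1 h, then heated to ten temperatures (37-66.3 °C), and soluble protein was quantified by TMT mass spectrometry relative to 0.1% DMSO controls. The thermal stability score (sum of log2 fold changes minus the abundance score) was transformed to a z-score; mean of n = 3 experiments.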

Compound in the next assay: O=[As]([O-])(O)O.[K+] [potassium arsenate]
The description is as above. The settings on record: HeLa; arsenate concentration 1 mM. How it is done: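 Cellular thermal proteome profiling in HeLa cells treated with 1 mM arsenate for 1 h (DMSO pretreatment), heated to ten temperatures (37-66.3 °C). Soluble protein was quantified by TMT mass spectrometry relative to DMSO controls; the thermal stability score was transformed to a z-score; mean of n = 3 experiments.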

[1] abbreviates: arsenate co-treatment: 1 mM arsenate 1 h.
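Also: each temperature applied for 3 min, abundance score taken as mean log2 fold change at the two lowest temperatures, z-score obtained by mean subtraction and division by SD.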

Sequence of UniProt Q96GS4 (Q96GS4 whole entry): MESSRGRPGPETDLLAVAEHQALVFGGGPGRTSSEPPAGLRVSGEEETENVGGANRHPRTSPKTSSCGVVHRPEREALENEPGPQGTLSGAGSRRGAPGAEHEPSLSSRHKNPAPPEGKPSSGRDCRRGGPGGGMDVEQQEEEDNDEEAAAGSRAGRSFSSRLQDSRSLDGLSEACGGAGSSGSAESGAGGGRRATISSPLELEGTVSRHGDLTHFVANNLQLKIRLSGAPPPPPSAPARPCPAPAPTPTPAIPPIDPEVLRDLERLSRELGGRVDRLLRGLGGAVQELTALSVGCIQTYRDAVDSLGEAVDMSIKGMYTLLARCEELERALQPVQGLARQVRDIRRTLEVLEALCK
Sequence of UniProt O60503 (O60503 whole entry): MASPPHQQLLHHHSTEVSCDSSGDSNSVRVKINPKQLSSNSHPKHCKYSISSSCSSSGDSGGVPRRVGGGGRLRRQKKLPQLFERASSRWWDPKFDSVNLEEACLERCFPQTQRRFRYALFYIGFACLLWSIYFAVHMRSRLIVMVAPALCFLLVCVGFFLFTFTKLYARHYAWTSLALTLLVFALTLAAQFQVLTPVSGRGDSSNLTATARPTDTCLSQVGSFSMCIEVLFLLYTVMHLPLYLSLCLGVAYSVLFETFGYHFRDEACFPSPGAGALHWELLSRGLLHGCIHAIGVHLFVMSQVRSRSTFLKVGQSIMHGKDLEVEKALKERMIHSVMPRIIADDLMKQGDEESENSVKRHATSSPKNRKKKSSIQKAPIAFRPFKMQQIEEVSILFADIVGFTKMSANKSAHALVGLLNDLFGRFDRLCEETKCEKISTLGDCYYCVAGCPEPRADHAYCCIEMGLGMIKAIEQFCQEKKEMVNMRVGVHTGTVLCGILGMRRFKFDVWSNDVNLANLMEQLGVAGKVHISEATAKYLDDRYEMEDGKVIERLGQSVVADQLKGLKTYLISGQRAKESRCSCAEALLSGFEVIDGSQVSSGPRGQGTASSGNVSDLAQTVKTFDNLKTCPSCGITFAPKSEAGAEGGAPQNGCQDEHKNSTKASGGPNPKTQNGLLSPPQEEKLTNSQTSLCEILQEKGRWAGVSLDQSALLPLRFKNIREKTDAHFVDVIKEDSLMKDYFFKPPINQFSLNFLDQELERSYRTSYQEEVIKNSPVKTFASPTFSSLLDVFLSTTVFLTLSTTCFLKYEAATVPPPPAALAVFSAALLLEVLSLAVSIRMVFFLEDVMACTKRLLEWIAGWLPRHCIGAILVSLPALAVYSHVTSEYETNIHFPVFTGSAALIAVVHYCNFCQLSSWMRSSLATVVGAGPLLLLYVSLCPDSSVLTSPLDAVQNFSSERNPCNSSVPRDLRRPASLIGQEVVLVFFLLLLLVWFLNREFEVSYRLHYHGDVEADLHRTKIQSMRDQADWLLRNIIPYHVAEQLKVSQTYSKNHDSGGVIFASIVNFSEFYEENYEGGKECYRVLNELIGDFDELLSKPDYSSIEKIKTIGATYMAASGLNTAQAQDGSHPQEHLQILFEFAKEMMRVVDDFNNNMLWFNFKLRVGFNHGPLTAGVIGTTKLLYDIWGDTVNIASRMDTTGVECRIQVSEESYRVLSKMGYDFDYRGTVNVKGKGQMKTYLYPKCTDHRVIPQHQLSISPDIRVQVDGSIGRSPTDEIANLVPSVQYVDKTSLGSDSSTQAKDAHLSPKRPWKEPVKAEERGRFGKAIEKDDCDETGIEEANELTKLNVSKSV
Sequence of UniProt P40616 (P40616 whole entry): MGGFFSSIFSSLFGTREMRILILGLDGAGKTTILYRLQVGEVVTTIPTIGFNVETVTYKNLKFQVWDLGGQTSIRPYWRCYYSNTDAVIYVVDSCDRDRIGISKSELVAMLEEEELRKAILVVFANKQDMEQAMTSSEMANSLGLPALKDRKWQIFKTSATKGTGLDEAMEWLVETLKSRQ
Sequence of UniProt Q92791 (Q92791 whole entry): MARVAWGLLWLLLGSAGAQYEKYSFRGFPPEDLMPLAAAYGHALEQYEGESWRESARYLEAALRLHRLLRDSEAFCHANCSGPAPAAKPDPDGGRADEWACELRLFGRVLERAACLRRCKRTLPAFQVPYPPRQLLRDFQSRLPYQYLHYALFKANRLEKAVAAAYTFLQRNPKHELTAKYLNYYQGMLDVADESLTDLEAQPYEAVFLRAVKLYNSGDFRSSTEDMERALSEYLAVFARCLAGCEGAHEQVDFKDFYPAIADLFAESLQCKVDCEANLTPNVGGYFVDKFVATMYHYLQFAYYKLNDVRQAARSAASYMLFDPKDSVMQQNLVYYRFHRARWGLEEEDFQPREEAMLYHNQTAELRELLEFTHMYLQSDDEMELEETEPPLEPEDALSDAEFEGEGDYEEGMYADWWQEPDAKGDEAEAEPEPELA
Sequence of UniProt Q9NR46 (Q9NR46 whole entry): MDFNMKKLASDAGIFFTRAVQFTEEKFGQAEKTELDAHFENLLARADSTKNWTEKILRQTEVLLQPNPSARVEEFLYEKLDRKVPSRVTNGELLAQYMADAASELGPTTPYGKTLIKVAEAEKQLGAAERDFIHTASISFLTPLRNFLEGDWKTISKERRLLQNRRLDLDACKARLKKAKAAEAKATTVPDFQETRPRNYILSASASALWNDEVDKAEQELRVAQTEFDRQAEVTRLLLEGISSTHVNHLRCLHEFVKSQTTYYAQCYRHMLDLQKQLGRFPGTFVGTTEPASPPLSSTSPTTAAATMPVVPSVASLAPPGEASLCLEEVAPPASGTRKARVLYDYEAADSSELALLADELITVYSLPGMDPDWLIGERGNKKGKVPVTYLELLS
Sequence of UniProt Q9UGJ1 (Q9UGJ1 whole entry): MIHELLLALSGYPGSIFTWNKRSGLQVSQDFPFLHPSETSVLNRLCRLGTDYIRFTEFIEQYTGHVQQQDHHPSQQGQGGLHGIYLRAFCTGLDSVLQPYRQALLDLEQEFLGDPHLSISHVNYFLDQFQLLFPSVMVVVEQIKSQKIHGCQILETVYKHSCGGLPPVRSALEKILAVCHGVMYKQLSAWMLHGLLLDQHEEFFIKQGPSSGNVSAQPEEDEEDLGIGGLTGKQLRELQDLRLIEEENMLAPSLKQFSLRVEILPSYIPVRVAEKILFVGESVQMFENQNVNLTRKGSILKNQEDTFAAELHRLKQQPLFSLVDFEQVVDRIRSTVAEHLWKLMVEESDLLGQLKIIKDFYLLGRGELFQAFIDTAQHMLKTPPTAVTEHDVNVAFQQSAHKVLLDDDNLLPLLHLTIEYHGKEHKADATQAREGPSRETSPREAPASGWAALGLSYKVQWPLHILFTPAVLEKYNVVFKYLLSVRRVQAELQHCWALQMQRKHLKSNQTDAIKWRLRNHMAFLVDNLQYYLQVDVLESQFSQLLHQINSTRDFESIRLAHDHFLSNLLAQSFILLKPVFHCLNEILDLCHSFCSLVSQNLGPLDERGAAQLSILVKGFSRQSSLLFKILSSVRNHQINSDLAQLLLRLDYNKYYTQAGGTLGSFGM
Sequence of UniProt Q96RU2 (Q96RU2 whole entry): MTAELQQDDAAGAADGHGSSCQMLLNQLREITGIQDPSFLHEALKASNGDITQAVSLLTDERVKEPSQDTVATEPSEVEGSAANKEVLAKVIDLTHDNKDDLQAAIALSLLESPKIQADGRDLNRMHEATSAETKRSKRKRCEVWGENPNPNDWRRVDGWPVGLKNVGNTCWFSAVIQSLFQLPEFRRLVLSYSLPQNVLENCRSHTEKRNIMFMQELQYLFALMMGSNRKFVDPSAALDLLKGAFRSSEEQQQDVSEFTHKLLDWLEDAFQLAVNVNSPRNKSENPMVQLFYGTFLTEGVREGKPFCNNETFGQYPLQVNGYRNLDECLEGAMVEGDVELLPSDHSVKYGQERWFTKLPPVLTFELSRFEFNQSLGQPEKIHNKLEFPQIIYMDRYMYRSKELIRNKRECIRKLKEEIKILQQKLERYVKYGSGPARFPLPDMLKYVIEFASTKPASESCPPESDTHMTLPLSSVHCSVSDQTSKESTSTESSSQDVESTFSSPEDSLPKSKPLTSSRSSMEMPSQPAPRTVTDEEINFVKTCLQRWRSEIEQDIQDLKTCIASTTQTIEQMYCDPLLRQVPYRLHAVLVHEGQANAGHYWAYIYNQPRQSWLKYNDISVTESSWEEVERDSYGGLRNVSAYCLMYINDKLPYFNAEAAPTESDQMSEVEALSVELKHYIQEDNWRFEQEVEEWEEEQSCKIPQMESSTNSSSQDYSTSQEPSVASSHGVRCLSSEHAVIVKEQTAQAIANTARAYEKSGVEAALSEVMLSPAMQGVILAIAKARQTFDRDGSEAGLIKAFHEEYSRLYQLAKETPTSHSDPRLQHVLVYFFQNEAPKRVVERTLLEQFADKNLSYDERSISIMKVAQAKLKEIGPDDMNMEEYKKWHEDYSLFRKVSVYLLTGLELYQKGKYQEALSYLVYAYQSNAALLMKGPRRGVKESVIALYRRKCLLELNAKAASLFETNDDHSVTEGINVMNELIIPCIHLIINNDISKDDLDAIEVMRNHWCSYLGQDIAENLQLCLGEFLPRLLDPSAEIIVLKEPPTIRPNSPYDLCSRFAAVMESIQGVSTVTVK
Sequence of UniProt Q8TCX1 (Q8TCX1 whole entry): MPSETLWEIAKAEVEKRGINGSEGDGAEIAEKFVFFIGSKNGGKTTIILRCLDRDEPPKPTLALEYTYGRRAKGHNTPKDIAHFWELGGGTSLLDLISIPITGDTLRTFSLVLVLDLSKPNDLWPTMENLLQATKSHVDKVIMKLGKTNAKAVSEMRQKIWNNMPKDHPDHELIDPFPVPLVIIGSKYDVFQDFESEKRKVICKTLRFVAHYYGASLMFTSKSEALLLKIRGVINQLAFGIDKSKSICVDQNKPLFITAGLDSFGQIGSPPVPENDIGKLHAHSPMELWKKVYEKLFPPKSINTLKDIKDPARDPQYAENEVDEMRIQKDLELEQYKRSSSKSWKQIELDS
Sequence of UniProt O43805 (O43805 whole entry): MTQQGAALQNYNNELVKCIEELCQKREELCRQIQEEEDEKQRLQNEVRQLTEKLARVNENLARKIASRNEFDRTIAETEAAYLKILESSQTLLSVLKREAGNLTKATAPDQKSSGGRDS

In the case of SSNA1 (UniProt O43805), the thermal stability z-score amounted to 1.6 with lipoamide (setting [1]), 1.39 with lipoamide (arsenate co-treatment: none) and 1.34 in the assay with potassium arsenate.

In the case of C17ORF59 (UniProt Q96GS4), the thermal stability z-score in the assay with lipoamide (setting [1]) is 0.136; in the assay with lipoamide (arsenate co-treatment: none) it was -0.131; in the assay with potassium arsenate, -0.163.

For the target USP9X (UniProt Q93008), the values for the thermal stability z-score with lipoamide (setting [1]), with lipoamide (arsenate co-treatment: none) and with potassium arsenate were -0.133, -0.258 and 0.115, respectively.

Take DLG1 (UniProt Q12959): the thermal stability z-score is 0.111 with lipoamide (setting [1]), -0.207 with lipoamide (arsenate co-treatment: none) and -0.34 in the assay with potassium arsenate.

With PDCD5 (UniProt O14737), the thermal stability z-score in the assay with lipoamide (setting [1]) was found to be 1.01; in the assay with lipoamide (arsenate co-treatment: none), 0.727; in the assay with potassium arsenate it was 0.417.

With LMTK2 (UniProt Q8IWU2), the results for the thermal stability z-score with lipoamide (setting [1]), in the assay with lipoamide (arsenate co-treatment: none) and in the assay with potassium arsenate were -0.465, -0.397 and 1.04, respectively.

ADCY9 (UniProt O60503): the thermal stability z-score with lipoamide (setting [1]) was determined as 0.368; with lipoamide (arsenate co-treatment: none), 0.853; with potassium arsenate, 0.26.

Consider KDM3B (UniProt Q7LBC6), for which the thermal stability z-score with lipoamide (setting [1]) was 0.258; with lipoamide (arsenate co-treatment: none), -0.0129; with potassium arsenate, 0.0976.

For the target USP28 (UniProt Q96RU2), the thermal stability z-score was -0.088 with lipoamide (setting [1]), -0.175 with lipoamide (arsenate co-treatment: none) and -0.158 with potassium arsenate.

In the case of SLC12A6 (UniProt Q9UHW9), the figures for the thermal stability z-score in the assay with lipoamide (setting [1]), with lipoamide (arsenate co-treatment: none) and with potassium arsenate were -0.454, -0.27 and 0.131, respectively.

For AP2A1 (UniProt O95782), the thermal stability z-score with lipoamide (setting [1]) is -0.0653; with lipoamide (arsenate co-treatment: none), 0.3; in the assay with potassium arsenate it was 1.19.

Take RBM19 (UniProt Q9Y4C8): the results for the thermal stability z-score with lipoamide (setting [1]), in the assay with lipoamide (arsenate co-treatment: none) and with potassium arsenate were 0.0627, 0.309 and 0.649, respectively.

On to P3H4 (UniProt Q92791), for which the thermal stability z-score with lipoamide (setting [1]) was -4.72; with lipoamide (arsenate co-treatment: none), -3.94; with potassium arsenate it was 0.936.

For DYNC2LI1 (UniProt Q8TCX1), the thermal stability z-score was 0.0696 with lipoamide (setting [1]), -0.0585 with lipoamide (arsenate co-treatment: none) and 0.202 with potassium arsenate.

Consider RBM10, for which the thermal stability z-score with lipoamide (setting [1]) came to 3.5; with lipoamide (arsenate co-treatment: none) it was 2.13; with potassium arsenate it was 1.25.

TAP2 (UniProt Q03519): the figures for the thermal stability z-score with lipoamide (setting [1]), with lipoamide (arsenate co-treatment: none) and in the assay with potassium arsenate were -0.828, -0.526 and 0.366, respectively.

As to RBM33 (UniProt Q96EV2), the thermal stability z-score in the assay with lipoamide (setting [1]) was 0.0301; with lipoamide (arsenate co-treatment: none), -0.534; with potassium arsenate, -0.175.

As to MTIF2 (UniProt P46199), the figures for the thermal stability z-score in the assay with lipoamide (setting [1]), with lipoamide (arsenate co-treatment: none) and in the assay with potassium arsenate were -0.77, -1.59 and -0.789, respectively.

In the case of TUBGCP4 (UniProt Q9UGJ1), the thermal stability z-score with lipoamide (setting [1]) was -0.259; with lipoamide (arsenate co-treatment: none) it was -0.815; in the assay with potassium arsenate, 0.141.

Regarding MRPS36 (UniProt P82909), the results for the thermal stability z-score with lipoamide (setting [1]), in the assay with lipoamide (arsenate co-treatment: none) and in the assay with potassium arsenate were 0.32, 0.0105 and 0.55, respectively.

Take MTMR12 (UniProt Q9C0I1): the thermal stability z-score with lipoamide (setting [1]) is 0.611; in the assay with lipoamide (arsenate co-treatment: none) it was -0.0556; in the assay with potassium arsenate, -0.0618.

On to SH3GLB2 (UniProt Q9NR46), for which the thermal stability z-score with lipoamide (setting [1]) was -0.0875; with lipoamide (arsenate co-treatment: none) it was 0.468; with potassium arsenate, 0.364.

For ARL1 (UniProt P40616), the thermal stability z-score was -0.148 with lipoamide (setting [1]), -0.943 in the assay with lipoamide (arsenate co-treatment: none) and 0.669 with potassium arsenate.

For the origin of these results see the supplement of paper PMC12463676, “Small-molecule dissolution of stress granules by redox modulation benefits ALS models” (Nature Chemical Biology, 2025).
